Numbers after ± are expanded uncertainties.
Test: xn = mol fraction of the nth substance listed
Details: Constant-volume piezometry

CCCCC [pentane] + CCCO
Details	mass density [kg/m3]
563.15 K, 15195 kPa, Fluid (supercritical or subcritical phases), x1 = 0.9	353.41 ± 1.8
563.15 K, 15944 kPa, Fluid (supercritical or subcritical phases), x1 = 0.8	361.2 ± 1.8
563.15 K, 20883 kPa, Fluid (supercritical or subcritical phases), x1 = 0.2	469.34 ± 2.4
563.15 K, 22608 kPa, Fluid (supercritical or subcritical phases), x1 = 0.9	406.44 ± 2
563.15 K, 23762 kPa, Fluid (supercritical or subcritical phases), x1 = 0.8	417.33 ± 2.1
563.15 K, 29039 kPa, Fluid (supercritical or subcritical phases), x1 = 0.2	508.42 ± 2.6
563.15 K, 36842 kPa, Fluid (supercritical or subcritical phases), x1 = 0.8	465.69 ± 2.4
563.15 K, 41493 kPa, Fluid (supercritical or subcritical phases), x1 = 0.2	545.72 ± 2.8
573.15 K, 1455 kPa, Gas, x1 = 0.8	22.47 ± 0.07
573.15 K, 1761 kPa, Gas, x1 = 0.2	24.87 ± 0.08
573.15 K, 2249 kPa, Gas, x1 = 0.8	36.6 ± 0.11
573.15 K, 3350 kPa, Gas, x1 = 0.8	58.27 ± 0.18
573.15 K, 3774 kPa, Gas, x1 = 0.2	52.88 ± 0.16
573.15 K, 4034 kPa, Fluid (supercritical or subcritical phases), x1 = 0.8	73.62 ± 0.37
573.15 K, 4329 kPa, Fluid (supercritical or subcritical phases), x1 = 0.9	83.18 ± 0.42
573.15 K, 5099 kPa, Fluid (supercritical or subcritical phases), x1 = 0.2	91.19 ± 0.46
573.15 K, 5320 kPa, Fluid (supercritical or subcritical phases), x1 = 0.8	106.15 ± 0.54
573.15 K, 5748 kPa, Fluid (supercritical or subcritical phases), x1 = 0.9	123.05 ± 0.62
573.15 K, 5856 kPa, Fluid (supercritical or subcritical phases), x1 = 0.2	114.08 ± 0.58
573.15 K, 6139 kPa, Fluid (supercritical or subcritical phases), x1 = 0.9	133.8 ± 0.68
573.15 K, 6637 kPa, Fluid (supercritical or subcritical phases), x1 = 0.8	139.97 ± 0.71
573.15 K, 6909 kPa, Fluid (supercritical or subcritical phases), x1 = 0.2	149.98 ± 0.76
573.15 K, 7024 kPa, Fluid (supercritical or subcritical phases), x1 = 0.9	163.56 ± 0.83
573.15 K, 7062 kPa, Fluid (supercritical or subcritical phases), x1 = 0.8	155.67 ± 0.79
573.15 K, 7474 kPa, Fluid (supercritical or subcritical phases), x1 = 0.8	169.37 ± 0.86
573.15 K, 7491 kPa, Fluid (supercritical or subcritical phases), x1 = 0.2	175.18 ± 0.9
573.15 K, 7658 kPa, Fluid (supercritical or subcritical phases), x1 = 0.8	175.6 ± 0.89
573.15 K, 7755 kPa, Fluid (supercritical or subcritical phases), x1 = 0.2	189.17 ± 0.97
573.15 K, 7776 kPa, Fluid (supercritical or subcritical phases), x1 = 0.8	180.39 ± 0.91
573.15 K, 7805 kPa, Fluid (supercritical or subcritical phases), x1 = 0.9	188.99 ± 0.96
573.15 K, 8168 kPa, Fluid (supercritical or subcritical phases), x1 = 0.8	192.69 ± 0.98
573.15 K, 8184 kPa, Fluid (supercritical or subcritical phases), x1 = 0.9	201.88 ± 1
573.15 K, 8351 kPa, Fluid (supercritical or subcritical phases), x1 = 0.2	219.55 ± 1.1
573.15 K, 8805 kPa, Fluid (supercritical or subcritical phases), x1 = 0.9	220.14 ± 1.1
573.15 K, 8815 kPa, Fluid (supercritical or subcritical phases), x1 = 0.8	213.33 ± 1.1
573.15 K, 8859 kPa, Fluid (supercritical or subcritical phases), x1 = 0.2	244.86 ± 1.2
573.15 K, 9002 kPa, Fluid (supercritical or subcritical phases), x1 = 0.8	219.08 ± 1.1
573.15 K, 9138 kPa, Fluid (supercritical or subcritical phases), x1 = 0.2	258.55 ± 1.3
573.15 K, 9198 kPa, Fluid (supercritical or subcritical phases), x1 = 0.9	232.49 ± 1.2
573.15 K, 9211 kPa, Fluid (supercritical or subcritical phases), x1 = 0.2	262.25 ± 1.3
573.15 K, 9316 kPa, Fluid (supercritical or subcritical phases), x1 = 0.9	235.95 ± 1.2
573.15 K, 9432 kPa, Fluid (supercritical or subcritical phases), x1 = 0.2	271.68 ± 1.4
573.15 K, 9453 kPa, Fluid (supercritical or subcritical phases), x1 = 0.9	240.34 ± 1.2
573.15 K, 9462 kPa, Fluid (supercritical or subcritical phases), x1 = 0.8	234.13 ± 1.2
573.15 K, 9562 kPa, Fluid (supercritical or subcritical phases), x1 = 0.9	243.64 ± 1.2
573.15 K, 9806 kPa, Fluid (supercritical or subcritical phases), x1 = 0.8	244.74 ± 1.2
573.15 K, 9864 kPa, Fluid (supercritical or subcritical phases), x1 = 0.2	289.81 ± 1.5
573.15 K, 10272 kPa, Fluid (supercritical or subcritical phases), x1 = 0.2	306.05 ± 1.6
573.15 K, 10324 kPa, Fluid (supercritical or subcritical phases), x1 = 0.8	257.93 ± 1.3
573.15 K, 10392 kPa, Fluid (supercritical or subcritical phases), x1 = 0.2	310.27 ± 1.6
573.15 K, 10713 kPa, Fluid (supercritical or subcritical phases), x1 = 0.2	317.97 ± 1.6
573.15 K, 10865 kPa, Fluid (supercritical or subcritical phases), x1 = 0.8	271.86 ± 1.4
573.15 K, 11108 kPa, Fluid (supercritical or subcritical phases), x1 = 0.9	281.31 ± 1.4
573.15 K, 11531 kPa, Fluid (supercritical or subcritical phases), x1 = 0.2	340.39 ± 1.7
573.15 K, 11654 kPa, Fluid (supercritical or subcritical phases), x1 = 0.2	343.17 ± 1.7
573.15 K, 11678 kPa, Fluid (supercritical or subcritical phases), x1 = 0.8	287.66 ± 1.4
573.15 K, 12021 kPa, Fluid (supercritical or subcritical phases), x1 = 0.9	300.93 ± 1.5
573.15 K, 12217 kPa, Fluid (supercritical or subcritical phases), x1 = 0.8	298.45 ± 1.5
573.15 K, 12707 kPa, Fluid (supercritical or subcritical phases), x1 = 0.9	311.54 ± 1.6
573.15 K, 13246 kPa, Fluid (supercritical or subcritical phases), x1 = 0.8	314.57 ± 1.6
573.15 K, 13392 kPa, Fluid (supercritical or subcritical phases), x1 = 0.2	377.65 ± 1.9
573.15 K, 13687 kPa, Fluid (supercritical or subcritical phases), x1 = 0.2	382.44 ± 1.9
573.15 K, 14239 kPa, Fluid (supercritical or subcritical phases), x1 = 0.9	333.19 ± 1.7
573.15 K, 14284 kPa, Fluid (supercritical or subcritical phases), x1 = 0.2	390.25 ± 2
573.15 K, 14505 kPa, Fluid (supercritical or subcritical phases), x1 = 0.8	333.01 ± 1.7
573.15 K, 15392 kPa, Fluid (supercritical or subcritical phases), x1 = 0.8	344.5 ± 1.7
573.15 K, 16409 kPa, Fluid (supercritical or subcritical phases), x1 = 0.9	353.22 ± 1.8
573.15 K, 16662 kPa, Fluid (supercritical or subcritical phases), x1 = 0.2	417.59 ± 2.1
573.15 K, 17250 kPa, Fluid (supercritical or subcritical phases), x1 = 0.8	361.01 ± 1.8
573.15 K, 23293 kPa, Fluid (supercritical or subcritical phases), x1 = 0.2	469.08 ± 2.4
573.15 K, 24391 kPa, Fluid (supercritical or subcritical phases), x1 = 0.9	406.23 ± 2
573.15 K, 25613 kPa, Fluid (supercritical or subcritical phases), x1 = 0.8	417.11 ± 2.1
573.15 K, 32252 kPa, Fluid (supercritical or subcritical phases), x1 = 0.2	508.13 ± 2.6
573.15 K, 39390 kPa, Fluid (supercritical or subcritical phases), x1 = 0.8	465.43 ± 2.4
